Experiments:
[1] = tested on: ATF4; assay: ATF4 expression inhibition assay (ATF4 5'UTR luciferase reporter, thapsigargin-stressed); type: cell-based; settings: Homo sapiens, HEK-293T; HEK293T cells carrying ATF4 luciferase reporter, 100 nM thapsigargin, 3 hours; read-out: ATF4 inhibition
Protocol: The ATF4 reporter was prepared by fusing the human full length 5′UTR of ATF4 (NCBI Accession No. BC022088.2) upstream of the firefly luciferase coding sequence lacking the initiator methionine. The fused sequence was cloned into pLenti-EF1a-C-Myc-DDK-IRES-Puro cloning vector (Origen #PS100085) using standard methods.
HEK293T cells carrying the ATF4 luciferase reporter were plated on 96-well plates (Nunc) at 10,000 cells per well. Cells were treated two days after seeding with 100 nM thapsigargin (Tg) (Sigma-Aldrich #T9033) in the presence of different concentrations of selected compounds ranging from 0.1 nM to 10 μM. Cells without treatment or cells treated with Tg alone were used as controls. Assay plates containing cells were incubated for 3 hours at 37° C.
Luciferase reactions were performed using Luciferase Assay System (Promega #E1501) as specified by the manufacturer. Luminescence was read with an integration time of 1 s and a gain of 110 using a Cytation-5 multi-mode microplate reader (BioTek).

[2] = tested on: Chinese hamster ovary (CHO) cells; assay: Protein synthesis assay (puromycin incorporation, Western blot); type: cell-based; settings: Cricetulus griseus; unstressed CHO cells (without Tg), 1 μM test compound, 2 hours; media alone = 100%; read-out: % Protein synthesis relative to untreated (1 μM test compound)
Protocol: Chinese hamster ovary (CHO) cells were maintained at 37° C. and 5% CO2 in Dulbecco's Modified Eagle's Media (DMEM) supplemented with 10% fetal bovine serum, 2 mM L-glutamine, 100 U/ml penicillin, and 100 μg/ml streptomycin. After reaching 80% of confluence, cells were detached and seeded on 6 well plates in complete media, allowed to recover overnight and treated for 2 hours with 1 μM of the test compound (to assess protein synthesis levels in unstressed condition), or for 2 hours with 300 nM Tg in the presence of 1 μM of the test compound (to assess the recovery of protein synthesis in a stressed condition). Cells with Tg alone were used as controls.
After the 2 hours treatments, media were replaced by adding 10 μg/ml puromycin (Sigma Aldrich #P8833) in complete media for 30 min. Media were removed and cells were lysed with SDS-PAGE lysis buffer. Lysates were transferred to 1.5 ml tubes and sonicated for 3 min and total protein amount were quantified using BCA Protein Assay Kit (Pierce). Equal amount of protein (30 μg) was loaded on SDS-PAGE gels.
A HRP-conjugated secondary antibody (Rockland) was employed to detect immune-reactive bands using enhanced chemiluminescence (ECL Western Blotting Substrate, Pierce). Quantification of protein bands was done by densitometry using ImageJ software.
The percentage levels were normalized to the media alone condition, which correspond to 100% protein synthesis. […]

| IC50 [1] [nM] | Structure (SMILES) | activity at 1 µM [2] [%] |
| --- | --- | --- |
| < 10 | O=C(COc1ccc(Cl)c(F)c1)N[C@H]1CC[C@H](n2cnc(-c3ccc(Cl)cc3)c2)CC1 [Compound 44, trans-2-(4-chloro-3-fluorophenoxy)-N-(4-(4-(4-chlorophenyl)-1H-imidazol-1-yl)cyclohexyl)acetamide] | 39.5 |
| 10 to 100 | O=C(Nc1ccc2cc(Cl)ccc2n1)[C@H]1CC[C@H](c2nnc(C3CNc4cc(Cl)ccc4O3)o2)CC1 (stereo partly drawn) [Compound 45, trans-4-(5-(6-chloro-3,4-dihydro-2H-benzo[b][1,4]oxazin-2-yl)-1,3,4-oxadiazol-2-yl)-N-(6-chloroquinolin-2-yl)cyclohexanecarboxamide] | 81.8 |
| 10 to 100 | O=C(Nc1ccc2cc(Cl)ccc2n1)[C@H]1CC[C@H](c2nnc(-c3ccc4cc(Cl)ccc4n3)o2)CC1 [Compound 46, trans-N-(6-chloroquinolin-2-yl)-4-(5-(6-chloroquinolin-2-yl)-1,3,4-oxadiazol-2-yl)cyclohexanecarboxamide] | 11.8 |
| > 1000 | O=C(NCc1ccc2cc(Cl)ccc2n1)[C@H]1CC[C@H](c2nnc(-c3ccc(Cl)cc3)o2)CC1 [Compound 47, trans-4-(5-(4-chlorophenyl)-1,3,4-oxadiazol-2-yl)-N-((6-chloroquinolin-2-yl)methyl)cyclohexanecarboxamide] | 2 |
| 10 to 100 | O=C(Nc1ccc2cc(Cl)ccc2n1)[C@H]1CC[C@H](c2nnc([C@H]3C[C@@H](OC(F)(F)F)C3)o2)CC1 [Compound 48, trans-N-(6-chloroquinolin-2-yl)-4-(5-(cis-3-(trifluoromethoxy)cyclobutyl)-1,3,4-oxadiazol-2-yl)cyclohexanecarboxamide] | 22.4 |
| 10 to 100 | O=C(Nc1ccc2cc(Cl)ccc2n1)[C@H]1CC[C@H](c2nnc(Cc3ccc(Cl)cc3)o2)CC1 [Compound 237, trans-4-(5-(4-chlorobenzyl)-1,3,4-oxadiazol-2-yl)-N-(6-chloroquinolin-2-yl)cyclohexanecarboxamide] | 51.3 |
| < 10 | O=C(COc1ccc(Cl)c(F)c1)N[C@H]1CC[C@H](c2nnc(Cc3ccc(Cl)cc3)o2)CC1 [Compound 238, 2-(4-chloro-3-fluorophenoxy)-N-(trans-4-(5-(4-chlorobenzyl)-1,3,4-oxadiazol-2-yl)cyclohexyl)acetamide] | 74.6 |
| < 10 | O=C(N[C@H]1CC[C@H](c2nnc(Cc3ccc(Cl)cc3)o2)CC1)c1ccc2cc(Cl)ccc2n1 [Compound 239, 6-chloro-N-(trans-4-(5-(4-chlorobenzyl)-1,3,4-oxadiazol-2-yl)cyclohexyl)quinoline-2-carboxamide] | 197 |
| < 10 | O=C(COc1ccc(Cl)c(F)c1)NN1CCC(c2nnc(COc3ccc(Cl)cc3)o2)CC1 [Compound 240, 2-(4-chloro-3-fluorophenoxy)-N-(4-(5-((4-chlorophenoxy)methyl)-1,3,4-oxadiazol-2-yl)piperidin-1-yl)acetamide] | 42.3 |
| < 10 | O=C(COc1ccc(Cl)c(F)c1)NN1CCC(c2nnc([C@H]3C[C@@H](OC(F)(F)F)C3)o2)CC1 [Compound 242, 2-(4-chloro-3-fluorophenoxy)-N-(4-(5-(cis-3-(trifluoromethoxy)cyclobutyl)-1,3,4-oxadiazol-2-yl)piperidin-1-yl)acetamide] | 23 |
| 10 to 100 | O=C(COc1ccc(Cl)c(F)c1)N[C@H]1CC[C@H](c2nnc([C@H]3C[C@@H](C(F)(F)F)C3)o2)CC1 [Compound 243, trans-2-(4-chloro-3-fluorophenoxy)-N-(4-(5-(cis-3-(trifluoromethyl)cyclobutyl)-1,3,4-oxadiazol-2-yl)cyclohexyl)acetamide] | -39.1 |
| < 10 | O=C(COc1ccc(Cl)c(F)c1)N[C@H]1CC[C@H](c2nnc(Cc3ccc(Cl)c(F)c3)o2)CC1 [Compound 244, N-(trans-4-(5-(4-chloro-3-fluorobenzyl)-1,3,4-oxadiazol-2-yl)cyclohexyl)-2-(4-chloro-3-fluorophenoxy)acetamide] | 94 |
| < 10 | O=C(N[C@H]1CC[C@H](c2nnc(Cc3ccc(Cl)cc3)o2)CC1)c1cc2cc(Cl)ccc2o1 [Compound 247, trans-5-chloro-N-(4-(5-(4-chlorobenzyl)-1,3,4-oxadiazol-2-yl)cyclohexyl)benzofuran-2-carboxamide] | 278 |
| 10 to 100 | O=C(Nc1ccc2cc(Cl)ccc2n1)[C@H]1CC[C@H](c2cnn(-c3ccc(Cl)cc3)c2)CC1 [Compound 250, trans-4-(1-(4-chlorophenyl)-1H-pyrazol-4-yl)-N-(6-chloroquinolin-2-yl)cyclohexanecarboxamide] | 25 |
